Data as given in PubChem BioAssay (NCI).
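Five compound concentrations were applied to cells in 96-well plates for 48 hours; endpoints were derived by simple linear interpolation of the resulting dose-response curve. The concentration for 50% growth inhibition is given as GI50. Definition used: TGI = concentration required for complete inhibition of growth.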

Assays:
Test in all cases: DTP human tumour cell line panel, 48 h
786-0 renal = system: 786-0 renal
A498 renal = system: A498 renal
A549 NSCLC = system: A549 NSCLC
ACHN renal = system: ACHN renal
BT-549 breast = system: BT-549 breast
CAKI-1 renal = system: CAKI-1 renal
CCRF-CEM leukemia = system: CCRF-CEM leukemia
COLO 205 colon = system: COLO 205 colon
DU-145 prostate = system: DU-145 prostate
HCC-2998 colon = system: HCC-2998 colon
HCT-116 colon = system: HCT-116 colon
HCT-15 colon = system: HCT-15 colon
HL-60(TB) leukemia = system: HL-60(TB) leukemia
HOP-62 NSCLC = system: HOP-62 NSCLC
HOP-92 NSCLC = system: HOP-92 NSCLC
HS 578T breast = system: HS 578T breast
HT29 colon = system: HT29 colon
IGROV1 ovarian = system: IGROV1 ovarian
K-562 leukemia = system: K-562 leukemia
KM12 colon = system: KM12 colon
LOX IMVI melanoma = system: LOX IMVI melanoma
M14 melanoma = system: M14 melanoma
MALME-3M melanoma = system: MALME-3M melanoma
MCF7 breast = system: MCF7 breast
MDA-MB-231 breast = system: MDA-MB-231 breast
MDA-MB-435 = system: MDA-MB-435
MOLT-4 leukemia = system: MOLT-4 leukemia
NCI-H226 lung = system: NCI-H226 lung
NCI-H23 lung = system: NCI-H23 lung
NCI-H460 lung = system: NCI-H460 lung
NCI-H522 lung = system: NCI-H522 lung
NCI/ADR-RES ovarian = system: NCI/ADR-RES ovarian
OVCAR-3 ovarian = system: OVCAR-3 ovarian
OVCAR-4 ovarian = system: OVCAR-4 ovarian
OVCAR-5 ovarian = system: OVCAR-5 ovarian
OVCAR-8 ovarian = system: OVCAR-8 ovarian
PC-3 prostate = system: PC-3 prostate
RPMI-8226 leukemia = system: RPMI-8226 leukemia
RXF 393 renal = system: RXF 393 renal
SF-268 CNS = system: SF-268 CNS
SF-295 CNS = system: SF-295 CNS
SF-539 CNS = system: SF-539 CNS
SK-MEL-2 melanoma = system: SK-MEL-2 melanoma
SK-MEL-28 melanoma = system: SK-MEL-28 melanoma
SK-MEL-5 melanoma = system: SK-MEL-5 melanoma
SK-OV-3 ovarian = system: SK-OV-3 ovarian
SN12C renal = system: SN12C renal
SNB-19 CNS = system: SNB-19 CNS
SNB-75 CNS = system: SNB-75 CNS
SR leukemia = system: SR leukemia
SW-620 colon = system: SW-620 colon
T-47D breast = system: T-47D breast
TK-10 renal = system: TK-10 renal
U251 CNS = system: U251 CNS
UACC-257 melanoma = system: UACC-257 melanoma
UACC-62 melanoma = system: UACC-62 melanoma
UO-31 renal = system: UO-31 renal

Compound: CCN(Cc1ccccc1Cl)c1ccc(CO)c(Cl)c1
- GI50 (786-0 renal): 12.8 µM
- TGI (786-0 renal): 26.1 µM
- GI50 (A498 renal): < 0.0219 µM
- TGI (A498 renal): 0.0672 µM
- GI50 (A549 NSCLC): 3.06 µM
- TGI (A549 NSCLC): 18.7 µM
- GI50 (ACHN renal): 13.7 µM
- TGI (ACHN renal): 27.3 µM
- GI50 (BT-549 breast): 15.8 µM
- TGI (BT-549 breast): 29.9 µM
- GI50 (CAKI-1 renal): 5.82 µM
- TGI (CAKI-1 renal): 21 µM
- GI50 (CCRF-CEM leukemia): 16.6 µM
- TGI (CCRF-CEM leukemia): 38.3 µM
- GI50 (COLO 205 colon): 5.72 µM
- TGI (COLO 205 colon): 16.3 µM
- GI50 (DU-145 prostate): 14 µM
- TGI (DU-145 prostate): 27.8 µM
- GI50 (HCC-2998 colon): 11.9 µM
- TGI (HCC-2998 colon): 25.4 µM
- GI50 (HCT-116 colon): 0.131 µM
- TGI (HCT-116 colon): 11.8 µM
- GI50 (HCT-15 colon): 10.2 µM
- TGI (HCT-15 colon): 24 µM
- GI50 (HL-60(TB) leukemia): 13.9 µM
- TGI (HL-60(TB) leukemia): 33.8 µM
- GI50 (HOP-62 NSCLC): 2.46 µM
- TGI (HOP-62 NSCLC): 16.1 µM
- GI50 (HOP-92 NSCLC): 0.932 µM
- TGI (HOP-92 NSCLC): 8.25 µM
- GI50 (HS 578T breast): 16 µM
- TGI (HS 578T breast): 38.7 µM
- GI50 (HT29 colon): 5.94 µM
- TGI (HT29 colon): 20 µM
- GI50 (IGROV1 ovarian): < 0.0418 µM
- TGI (IGROV1 ovarian): 0.138 µM
- GI50 (K-562 leukemia): 1.63 µM
- TGI (K-562 leukemia): 14.6 µM
- GI50 (KM12 colon): 13.4 µM
- TGI (KM12 colon): 28.7 µM
- GI50 (LOX IMVI melanoma): 16 µM
- TGI (LOX IMVI melanoma): 30.5 µM
- GI50 (M14 melanoma): 15.3 µM
- TGI (M14 melanoma): 31.7 µM
- GI50 (MALME-3M melanoma): 13.6 µM
- TGI (MALME-3M melanoma): 28.1 µM
- GI50 (MCF7 breast): 0.442 µM
- TGI (MCF7 breast): 12.1 µM
- GI50 (MDA-MB-231 breast): 13.1 µM
- TGI (MDA-MB-231 breast): 26.2 µM
- GI50 (MDA-MB-435): 9.19 µM
- TGI (MDA-MB-435): 23.9 µM
- GI50 (MOLT-4 leukemia): 15.8 µM
- TGI (MOLT-4 leukemia): 38.1 µM
- GI50 (NCI-H226 lung): 0.0295 µM
- TGI (NCI-H226 lung): 0.122 µM
- GI50 (NCI-H23 lung): 7.44 µM
- TGI (NCI-H23 lung): 22.6 µM
- GI50 (NCI-H460 lung): 0.296 µM
- TGI (NCI-H460 lung): 11.1 µM
- GI50 (NCI-H522 lung): 11.5 µM
- TGI (NCI-H522 lung): 25.4 µM
- GI50 (NCI/ADR-RES ovarian): 12.2 µM
- TGI (NCI/ADR-RES ovarian): 26.5 µM
- GI50 (OVCAR-3 ovarian): 0.774 µM
- TGI (OVCAR-3 ovarian): 4.32 µM
- GI50 (OVCAR-4 ovarian): 0.368 µM
- TGI (OVCAR-4 ovarian): 9.36 µM
- GI50 (OVCAR-5 ovarian): 0.206 µM
- TGI (OVCAR-5 ovarian): 0.789 µM
- GI50 (OVCAR-8 ovarian): 12.8 µM
- TGI (OVCAR-8 ovarian): 27.1 µM
- GI50 (PC-3 prostate): 12.5 µM
- TGI (PC-3 prostate): 25.8 µM
- GI50 (RPMI-8226 leukemia): 1.91 µM
- TGI (RPMI-8226 leukemia): 19 µM
- GI50 (RXF 393 renal): 3.75 µM
- TGI (RXF 393 renal): 20 µM
- GI50 (SF-268 CNS): 15.5 µM
- TGI (SF-268 CNS): 30 µM
- GI50 (SF-295 CNS): 0.775 µM
- TGI (SF-295 CNS): 7.45 µM
- GI50 (SF-539 CNS): 15 µM
- TGI (SF-539 CNS): 29 µM
- GI50 (SK-MEL-2 melanoma): 2.39 µM
- TGI (SK-MEL-2 melanoma): 16.1 µM
- GI50 (SK-MEL-28 melanoma): 11.8 µM
- TGI (SK-MEL-28 melanoma): 24.7 µM
- GI50 (SK-MEL-5 melanoma): 4.11 µM
- TGI (SK-MEL-5 melanoma): 17.1 µM
- GI50 (SK-OV-3 ovarian): 8.82 µM
- TGI (SK-OV-3 ovarian): 21.2 µM
- GI50 (SN12C renal): 11.5 µM
- TGI (SN12C renal): 24 µM
- GI50 (SNB-19 CNS): 13.2 µM
- TGI (SNB-19 CNS): 26.3 µM
- GI50 (SNB-75 CNS): 7.13 µM
- TGI (SNB-75 CNS): 21.8 µM
- GI50 (SR leukemia): 17.3 µM
- TGI (SR leukemia): 45.1 µM
- GI50 (SW-620 colon): 1.61 µM
- TGI (SW-620 colon): 16.8 µM
- GI50 (T-47D breast): 0.06 µM
- TGI (T-47D breast): 0.522 µM
- GI50 (TK-10 renal): < 0.0334 µM
- TGI (TK-10 renal): 0.257 µM
- GI50 (U251 CNS): 0.943 µM
- TGI (U251 CNS): 15 µM
- GI50 (UACC-257 melanoma): 0.094 µM
- TGI (UACC-257 melanoma): 0.461 µM
- GI50 (UACC-62 melanoma): 0.152 µM
- TGI (UACC-62 melanoma): 1.63 µM
- GI50 (UO-31 renal): 9.15 µM
- TGI (UO-31 renal): 24.9 µM
